From PubChem BioAssay (NCI)
“And” between values parts separate entries of the source, which are not always exact repeats. Equal values may be shown once.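 Cells were grown in 96-well plates and exposed to each compound for 48 hours at five concentrations; endpoints were interpolated linearly between bracketing concentrations, or set to the highest concentration if not reached. At the GI50, growth is halved. TGI is the concentration that stops growth completely.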

How the values were obtained:
Assay in all cases: inhibition of tumour cell growth, NCI panel, 48 h
ACHN renal = tested on: ACHN renal
HL-60(TB) leukemia = tested on: HL-60(TB) leukemia
MCF7 breast = tested on: MCF7 breast
MDA-MB-435 = tested on: MDA-MB-435
HCT-15 colon = tested on: HCT-15 colon
CCRF-CEM leukemia = tested on: CCRF-CEM leukemia
OVCAR-8 ovarian = tested on: OVCAR-8 ovarian
A498 renal = tested on: A498 renal
LOX IMVI melanoma = tested on: LOX IMVI melanoma
SR leukemia = tested on: SR leukemia

Row | SMILES | GI50 (ACHN renal) | TGI (ACHN renal) | GI50 (HL-60(TB) leukemia) | TGI (HL-60(TB) leukemia) | GI50 (MCF7 breast) | TGI (MCF7 breast) | GI50 (MDA-MB-435) | TGI (MDA-MB-435) | GI50 (HCT-15 colon) | TGI (HCT-15 colon) | GI50 (CCRF-CEM leukemia) | TGI (CCRF-CEM leukemia) | GI50 (OVCAR-8 ovarian) | TGI (OVCAR-8 ovarian) | GI50 (A498 renal) | TGI (A498 renal) | GI50 (LOX IMVI melanoma) | TGI (LOX IMVI melanoma) | GI50 (SR leukemia) | TGI (SR leukemia)
1 | CC1=C(C#N)C23C(=O)N(c4ccccc4)C(=O)C2=C(O)C=CC3(O)N1Cc1ccc(Cl)cc1Cl (stereo not drawn) | 12.6 µM | 25.2 µM | 3.18 µM | 6.82 µM | 2.12 µM | 13.3 µM | 1.89 µM | 4.68 µM | 5.88 µM | 19 µM | 1.59 µM | 4.28 µM | 3.52 µM | 13.8 µM | 5.79 µM | 18.1 µM | 1.59 µM | 2.94 µM | 1.85 µM | 4.49 µM
2 | COc1cc(-c2nn(-c3cccc(NC(=O)Nc4ccc(Cl)c(C(F)(F)F)c4)c3)cc2-c2ccncc2)ccc1Cl | 1.1 µM | 15.6 µM | 1.17 µM | > 32.5 µM | 0.919 µM | > 32.5 µM | 0.683 µM | 1.69 µM | 1.23 µM | 7.05 µM | 0.979 µM | > 32.5 µM | 1.05 µM | 5.87 µM | 0.837 µM | 6.97 µM | 1.17 µM | 4.61 µM | 0.884 µM | 2.48 µM
3 | Cc1ccc2c(C(C[N+](=O)[O-])c3ccccc3)c(-c3ccccc3)[nH]c2c1 (stereo not drawn) | 57.2 µM | > 95 µM | 22.6 µM | 57.2 µM | 13.5 µM | > 95 µM | 4.1 µM | 29.2 µM | 20.7 µM | > 95 µM | 25.2 µM | > 95 µM | 33 µM | > 95 µM | 24.9 µM | > 95 µM | 38.2 µM | > 95 µM | 4.54 µM | > 95 µM
4 | O=C1C2CCN(CC2)C1CN1CCOCC1 (stereo not drawn) |  | 4.18 µM |  | > 100 µM |  | 10.8 µM |  | > 100 µM |  | 4.94 µM |  | > 23.8 µM |  | 13.6 µM |  | 31.2 µM |  | 12.1 µM |  | 35.5 µM
5 | O=C(O)Cc1cccc2c(=O)cc(-c3ccccc3)oc12 | 813 µM | > 1000 µM | 142 µM | > 250 µM and 193 µM | 581 µM | 250 µM and > 1000 µM | 518 µM | > 1000 µM | 343 µM | 250 µM and > 1000 µM | > 49.6 µM and 29.8 µM | 237 µM and 747 µM | 84.5 µM | > 1000 µM | 307 µM | 250 µM and 979 µM | 280 µM | 250 µM and > 909 µM |  | 250 µM and > 917 µM
6 | COc1ccc2cc(-c3cnc4nonc4n3)ccc2c1 | 4.33 µM | > 100 µM | 0.803 µM | 9.03 µM | 0.415 µM | > 100 µM | 1 µM | 3.35 µM | 0.684 µM | > 100 µM | 1.62 µM | > 100 µM | 2.54 µM | > 100 µM | 1.15 µM | 8.79 µM | 1.88 µM | > 100 µM | 0.423 µM | > 100 µM
7 | COc1ccc(-c2ncnc3c2ncn3CC#CCCl)cc1 | 3.62 µM | 14.8 µM | 3.06 µM | 17.6 µM | 2.48 µM | 12.2 µM | 2.71 µM | 11.5 µM | 4.07 µM | 17.7 µM | 3.84 µM | 42.7 µM | 11.6 µM | > 100 µM | 2.15 µM | 12.5 µM | 1.77 µM | 3.52 µM | 5.24 µM | > 100 µM
8 | CC(C)(C)OC(=O)C1C(=O)NC(=O)CC1CC(OCc1ccccc1)C(OCc1ccccc1)C(COCc1ccccc1)OCc1ccccc1 (stereo not drawn) | 60.2 µM and 18.8 µM | > 100 µM | 16.6 µM and 2.81 µM | 46.5 µM and 11.1 µM | 27 µM and 7.19 µM | > 100 µM and 89.6 µM | 45.1 µM and 9.81 µM | > 100 µM and 66.1 µM | 60.5 µM and 21.4 µM | > 100 µM | 60.6 µM and 11.8 µM | > 100 µM | 33.1 µM and 12 µM | > 100 µM |  | > 100 µM | 34.7 µM and 8.43 µM | > 100 µM and 21.4 µM | 30.1 µM and 6.47 µM | > 100 µM
9 | COc1ccc(Br)cc1NC(=O)Nc1cccc2c1ccn2Cc1ccnc(N)c1 | 5.51 µM and 4.91 µM | 23.2 µM and > 10 µM | 4.69 µM and 3.6 µM | 20.8 µM and > 10 µM | 3.82 µM and 5.69 µM | 20.7 µM and > 10 µM | 5.42 µM and 5.81 µM | 23.5 µM and > 10 µM | 2.44 µM and 2.94 µM | 6.31 µM and > 10 µM | 3.92 µM and 5.43 µM | 40 µM and > 10 µM | 5.94 µM and > 10 µM | 23.3 µM and > 10 µM | 2.41 µM and 4.12 µM | 11.6 µM and > 10 µM | 1.83 µM and 2.18 µM | 3.66 µM and 5.14 µM | 2.51 µM and 3.11 µM | 15.5 µM and > 10 µM
